{"source": "paper PMC9972852", "about": "“Multivalent effect of peptide functionalized polymeric nanoparticles towards selective prostate cancer targeting” (Nanoscale Advances, 2023)", "origin": "cited, not measured here", "test_system": "extracellular domain of PSMA", "conditions": "monomeric peptide WQPDTAHHWATL", "from_the_text": "Prostate specific membrane antigen (PSMA) is a 100 kDa type II transmembrane glycosylated protein with folate hydrolase activity and is overexpressed not only in nearly all prostate cancer cells,[6] but also in tumor neovasculature in a variety of cancers.[6–8] In contrast, it has minimal expression (100–1000 times lower) in normal prostate epithelium tissues and other normal tissues,[7,9] making it an ideal biomarker for the design of various targeted therapies. Several different kinds of targeting ligands against PSMA have been discovered over the years;[10–12] however, they have not yet had ...", "data": [{"sequence": "WQPDTAHHWATLC [WQP peptide, PSMA-targeting cell targeting peptide …, synthesized with an added C-terminal cysteine]", "values": [{"measurement": "Binding affinity to the extracellular domain of PSMA", "result": "moderate/low"}]}]}
